Reference: paper PMC9403976, “Elucidating the path to Plasmodium prolyl-tRNA synthetase inhibitors that overcome halofuginone resistance” (Nature Communications, 2022)
Where “and” joins values, the source holds several entries; their conditions need not be identical. Equal entries are not always repeated. Where two headings read alike, the source gives them in different places.

Key:
[1] = test system: P. falciparum Dd2-2D4; experiment: P. falciparum asexual blood stage (ABS) growth assay, SYBR Green, 72 h, wild-type parasites; type: cell-based, Plasmodium falciparum; details: wildtype (Dd2-2D4); 20 μM
[2] = biological target: T1, PfcProRS (Plasmodium falciparum, UniProt Q8I5R7); type: binding; details: for dose-response signal (normalized), SI Fig 8: single replicates
T1 construct: made in house; host or cells: E. coli SoluBL-21

[3] = biological target: HsProRS (Homo sapiens, UniProt P07814); experiment: TR-FRET ligand displacement assay with tracer MAT379 (CoraFluor-1-Halo and anti-His6 antibody formats); type: binding; set-up: made in house; host or cells: E. coli SoluBL-21; details: for TR-FRET dose-response, normalized signal (SI Fig 11): individual replicates
Sequence of HsProRS (P07814 996-1512): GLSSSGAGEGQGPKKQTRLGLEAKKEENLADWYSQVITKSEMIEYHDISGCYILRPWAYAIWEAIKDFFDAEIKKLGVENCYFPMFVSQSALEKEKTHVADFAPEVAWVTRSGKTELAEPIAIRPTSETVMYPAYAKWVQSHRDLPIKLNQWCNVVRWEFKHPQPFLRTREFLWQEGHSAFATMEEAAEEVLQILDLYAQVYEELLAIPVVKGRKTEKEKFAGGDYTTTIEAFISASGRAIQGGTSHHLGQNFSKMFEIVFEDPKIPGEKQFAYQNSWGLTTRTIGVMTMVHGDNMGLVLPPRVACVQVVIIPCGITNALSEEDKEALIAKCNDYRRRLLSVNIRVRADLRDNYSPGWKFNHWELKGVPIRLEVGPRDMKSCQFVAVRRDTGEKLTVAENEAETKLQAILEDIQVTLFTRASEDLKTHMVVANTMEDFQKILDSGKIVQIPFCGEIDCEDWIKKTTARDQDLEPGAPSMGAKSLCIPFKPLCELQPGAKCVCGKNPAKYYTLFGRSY

T1 sequence (Q8I5R7 249-746): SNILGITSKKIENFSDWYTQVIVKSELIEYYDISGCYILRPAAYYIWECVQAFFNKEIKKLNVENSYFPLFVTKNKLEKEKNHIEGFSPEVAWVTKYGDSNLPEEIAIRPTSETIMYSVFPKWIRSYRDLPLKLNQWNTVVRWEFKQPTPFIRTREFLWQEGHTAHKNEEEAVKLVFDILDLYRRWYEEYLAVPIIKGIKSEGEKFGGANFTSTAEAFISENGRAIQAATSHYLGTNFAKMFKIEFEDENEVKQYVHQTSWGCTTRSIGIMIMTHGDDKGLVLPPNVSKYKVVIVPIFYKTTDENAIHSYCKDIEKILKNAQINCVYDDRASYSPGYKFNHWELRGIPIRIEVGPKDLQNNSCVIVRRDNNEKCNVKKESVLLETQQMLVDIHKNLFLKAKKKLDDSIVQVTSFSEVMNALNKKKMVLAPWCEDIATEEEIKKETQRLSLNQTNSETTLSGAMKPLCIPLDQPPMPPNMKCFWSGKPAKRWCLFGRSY

O=C(NC1Cc2ccccc2C1)c1nccnc1NC(=O)C1CCOCC1 [compound 18]
% signal at 20 μM, wildtype (Dd2-2D4) [1]: 108% | dose-response signal (normalized), SI Fig 8 ([2]; Log[inhibitor] (M) -5.000): 3.01E-01 and 4.11E-01 and 4.27E-01 | dose-response signal (normalized), SI Fig 8 ([2]; Log[inhibitor] (M) -5.301): 6.53E-01 and 6.16E-01 and 6.73E-01 | dose-response signal (normalized), SI Fig 8 ([2]; Log[inhibitor] (M) -5.601): 8.02E-01 and 8.42E-01 and 8.63E-01 | dose-response signal (normalized), SI Fig 8 ([2]; Log[inhibitor] (M) -5.904): 1.01E+00 and 1.00E+00 and 9.12E-01 | dose-response signal (normalized), SI Fig 8 ([2]; Log[inhibitor] (M) -6.208): 1.03E+00 and 1.00E+00 and 9.60E-01 | dose-response signal (normalized), SI Fig 8 ([2]; Log[inhibitor] (M) -6.509): 1.16E+00 and 9.38E-01 and 1.04E+00 | dose-response signal (normalized), SI Fig 8 ([2]; Log[inhibitor] (M) -6.796): 9.96E-01 and 9.92E-01 and 1.04E+00 | dose-response signal (normalized), SI Fig 8 ([2]; Log[inhibitor] (M) -7.108): 1.02E+00 and 9.74E-01 and 9.75E-01 | dose-response signal (normalized), SI Fig 8 ([2]; Log[inhibitor] (M) -7.409): 1.01E+00 (2×) and 1.08E+00 | dose-response signal (normalized), SI Fig 8 ([2]; Log[inhibitor] (M) -7.710): 9.82E-01 and 1.05E+00 and 9.42E-01 | dose-response signal (normalized), SI Fig 8 ([2]; Log[inhibitor] (M) -8.000): 1.03E+00 and 1.10E+00 and 9.98E-01 | dose-response signal (normalized), SI Fig 8 ([2]; Log[inhibitor] (M) -8.301): 9.51E-01 and 1.13E+00 and 9.71E-01 | dose-response signal (normalized), SI Fig 8 ([2]; Log[inhibitor] (M) -8.602): 1.03E+00 and 9.75E-01 and 1.04E+00 | dose-response signal (normalized), SI Fig 8 ([2]; Log[inhibitor] (M) -9.000): 9.05E-01 and 1.01E+00 and 9.83E-01 | dose-response signal (normalized), SI Fig 8 ([2]; Log[inhibitor] (M) -9.301): 9.17E-01 and 9.20E-01 and 9.09E-01 | PfcProRS -- best Kd ([2]; SI Fig 16a, values on -log scale): 5.799 | Kd ([3]; HsProRS (KD [nM]) mean, no added proline/ATP (-)): 7400 nM | Kd ([3]; HsProRS - best Kd, SI Fig 16a, values on -log scale): 225 nM | normalized TR-FRET ligand displacement signal, dose-response replicates (SI Fig 6) ([3]; Log[inhibitor] (M) -5.000): 6.96E-01 and 5.92E-01 and 5.43E-01 | TR-FRET dose-response, normalized signal (SI Fig 11) ([3]; Log[inhibitor] (M) -5.000): 4.20E-01 and 4.17E-01 and 4.61E-01 | normalized TR-FRET ligand displacement signal, dose-response replicates (SI Fig 6) ([3]; Log[inhibitor] (M) -5.301): 8.37E-01 and 8.70E-01 and 8.44E-01 | TR-FRET dose-response, normalized signal (SI Fig 11) ([3]; Log[inhibitor] (M) -5.301): 6.08E-01 and 6.33E-01 and 6.32E-01 | normalized TR-FRET ligand displacement signal, dose-response replicates (SI Fig 6) ([3]; Log[inhibitor] (M) -5.601): 9.23E-01 and 9.21E-01 and 9.37E-01 | TR-FRET dose-response, normalized signal (SI Fig 11) ([3]; Log[inhibitor] (M) -5.601): 7.60E-01 and 7.57E-01 and 7.53E-01 | normalized TR-FRET ligand displacement signal, dose-response replicates (SI Fig 6) ([3]; Log[inhibitor] (M) -5.904): 9.48E-01 and 1.01E+00 and 1.07E+00 | TR-FRET dose-response, normalized signal (SI Fig 11) ([3]; Log[inhibitor] (M) -5.904): 8.33E-01 and 8.64E-01 and 8.38E-01 | normalized TR-FRET ligand displacement signal, dose-response replicates (SI Fig 6) ([3]; Log[inhibitor] (M) -6.208): 1.06E+00 (2×) and 1.00E+00 | TR-FRET dose-response, normalized signal (SI Fig 11) ([3]; Log[inhibitor] (M) -6.208): 8.52E-01 and 9.04E-01 and 9.21E-01 | normalized TR-FRET ligand displacement signal, dose-response replicates (SI Fig 6) ([3]; Log[inhibitor] (M) -6.509): 1.01E+00 and 1.02E+00 and 9.62E-01 | TR-FRET dose-response, normalized signal (SI Fig 11) ([3]; Log[inhibitor] (M) -6.509): 9.56E-01 and 9.24E-01 and 9.57E-01 | normalized TR-FRET ligand displacement signal, dose-response replicates (SI Fig 6) ([3]; Log[inhibitor] (M) -6.796): 9.72E-01 and 9.92E-01 and 1.02E+00 | TR-FRET dose-response, normalized signal (SI Fig 11) ([3]; Log[inhibitor] (M) -6.796): 9.31E-01 (2×) and 9.72E-01 | normalized TR-FRET ligand displacement signal, dose-response replicates (SI Fig 6) ([3]; Log[inhibitor] (M) -7.108): 9.59E-01 and 8.74E-01 and 9.90E-01 | TR-FRET dose-response, normalized signal (SI Fig 11) ([3]; Log[inhibitor] (M) -7.108): 9.27E-01 and 9.12E-01 and 9.11E-01 | normalized TR-FRET ligand displacement signal, dose-response replicates (SI Fig 6) ([3]; Log[inhibitor] (M) -7.409): 9.78E-01 and 1.02E+00 and 1.05E+00 | TR-FRET dose-response, normalized signal (SI Fig 11) ([3]; Log[inhibitor] (M) -7.409): 9.66E-01 (2×) and 9.82E-01 | normalized TR-FRET ligand displacement signal, dose-response replicates (SI Fig 6) ([3]; Log[inhibitor] (M) -7.710): 9.30E-01 and 1.05E+00 and 1.11E+00 | TR-FRET dose-response, normalized signal (SI Fig 11) ([3]; Log[inhibitor] (M) -7.710): 9.81E-01 and 9.38E-01 and 9.42E-01 | normalized TR-FRET ligand displacement signal, dose-response replicates (SI Fig 6) ([3]; Log[inhibitor] (M) -8.000): 9.51E-01 and 9.79E-01 and 1.05E+00 | TR-FRET dose-response, normalized signal (SI Fig 11) ([3]; Log[inhibitor] (M) -8.000): 9.53E-01 and 9.52E-01 and 9.49E-01 | normalized TR-FRET ligand displacement signal, dose-response replicates (SI Fig 6) ([3]; Log[inhibitor] (M) -8.301): 9.09E-01 and 9.22E-01 and 9.59E-01 | TR-FRET dose-response, normalized signal (SI Fig 11) ([3]; Log[inhibitor] (M) -8.301): 9.20E-01 and 1.00E+00 and 8.97E-01 | normalized TR-FRET ligand displacement signal, dose-response replicates (SI Fig 6) ([3]; Log[inhibitor] (M) -8.602): 9.55E-01 and 9.72E-01 and 1.02E+00 | TR-FRET dose-response, normalized signal (SI Fig 11) ([3]; Log[inhibitor] (M) -8.602): 9.41E-01 and 9.60E-01 and 9.87E-01 | normalized TR-FRET ligand displacement signal, dose-response replicates (SI Fig 6) ([3]; Log[inhibitor] (M) -9.000): 9.17E-01 and 1.01E+00 and 9.46E-01 | TR-FRET dose-response, normalized signal (SI Fig 11) ([3]; Log[inhibitor] (M) -9.000): 9.26E-01 and 9.53E-01 and 9.30E-01 | normalized TR-FRET ligand displacement signal, dose-response replicates (SI Fig 6) ([3]; Log[inhibitor] (M) -9.301): 9.60E-01 and 1.07E+00 and 9.73E-01 | TR-FRET dose-response, normalized signal (SI Fig 11) ([3]; Log[inhibitor] (M) -9.301): 9.44E-01 and 9.56E-01 and 9.33E-01
